{
  "source": "paper PMC11189555",
  "about": "“Aryl amino acetamides prevent Plasmodium falciparum ring development via targeting the lipid-transfer protein PfSTART1” (Nature Communications, 2024)",
  "tested_on": "PopE-F10 M-833 resistant clone (PfSTART1 N330K)",
  "experiment": "Growth inhibition assay (72 h, LDH activity)",
  "format": "cell-based, Plasmodium falciparum",
  "method": "The drug was then removed, and parasites were allowed to recover. Another cycle of drug treatment (3 μM M-833) was then resumed. The resistant lines were cloned out by limiting dilution (diluting the culture into a 96-well plate to achieve an average of ~0.3 parasites per well), prior to growth inhibition assays and genomic DNA (gDNA) extraction (DNeasy Blood and Tissue kit (Qiagen)[18].\nParasite growth assays with inhibitory compounds were performed as per[11] and are fully described in the Supplementary Information. […]\nGrowth inhibition assays. Synchronised ring-stage parasites (0.3-0.6% parasitemia, 2% haematocrit) were grown for 72 h in a serial-dilution of the compound under […]\nand compound 4. Note that M-833 was first purchased from MolPort (MolPort -002-267-916) then made in-house at WEHI: the differences observed in EC50s across experiments are attributed to the different batches of M -833. For some experiments, 0, 0.25 or 2.5 mM of glucosamine (GlcN) was also added. Experiments were set up in technical duplicates or triplicates. Following a freeze -thaw cycle, lactate dehydrogenase (LDH) activity was assessed as an indicator of parasite growt h 5. 30 μL of parasite culture was incubated for 30 min in the dark with 75 μL Malstat mixture (0.1 M Tris pH 9.0, 20 g/L lactic acid, pH 7.5, 0.2% Triton-X100, 0.5 g/L acetylpyridine adenine dinucleotide (APAD, Sigma), 200 μg/mL nitroblue tetrazolium (NBT; Sigma), 1 μg/mL phenozine ethosulfate (PES; Sigma)). Absorbance was then measured at 650 nm, transformed using the formula below, plotted against the logarithm of the concentrations, and a non-linear regression (log(inhibitor) vs. response, variable slope) was calculated using GraphPad Prism to assess the half-inhibitory […]\nGrowth inhibition % = (1 − average(sample)− average(uRBC)) ∗ 100 […]\nThe DMSO samples were also used to assess growth of parasite in the presence of 0.25 and 2.5 mM GlcN (normalised by DMSO in 0 mM GlcN). […]",
  "note": "Read-outs that look alike come from different tables or passages of the source.",
  "data": [
    {"smiles": "Cc1cc(Cl)c(S(=O)(=O)N2CCCC2)cc1OCC(=O)NC1CCCCC1", "note": "[M-833]", "values": [
      {"measurement": "Normalised to DMSO", "setting": "M-833 0.0390625 uM, Pop E-F10 replicate 1", "result": 109.097},
      {"measurement": "Normalised to DMSO", "setting": "M-833 0.0390625 uM, Pop E-F10 replicate 3", "result": 103.799},
      {"measurement": "Normalised to DMSO", "setting": "M-833 0.078125 uM, Pop E-F10 replicate 1", "result": 108.039},
      {"measurement": "Normalised to DMSO", "setting": "M-833 0.078125 uM, Pop E-F10 replicate 3", "result": 104.854},
      {"measurement": "Normalised to DMSO", "setting": "M-833 0.15625 uM, Pop E-F10 replicate 1", "result": 116.502},
      {"measurement": "Normalised to DMSO", "setting": "M-833 0.15625 uM, Pop E-F10 replicate 3", "result": 108.125},
      {"measurement": "Normalised to DMSO", "setting": "M-833 0.3125 uM, Pop E-F10 replicate 1", "result": 113.047},
      {"measurement": "Normalised to DMSO", "setting": "M-833 0.3125 uM, Pop E-F10 replicate 3", "result": 113.296},
      {"measurement": "Normalised to DMSO", "setting": "M-833 0.625 uM, Pop E-F10 replicate 1", "result": 116.996},
      {"measurement": "Normalised to DMSO", "setting": "M-833 0.625 uM, Pop E-F10 replicate 3", "result": 104.749},
      {"measurement": "Normalised to DMSO", "setting": "M-833 1.25 uM, Pop E-F10 replicate 1", "result": 105.924},
      {"measurement": "Normalised to DMSO", "setting": "M-833 1.25 uM, Pop E-F10 replicate 3", "result": 104.326},
      {"measurement": "Normalised to DMSO", "setting": "M-833 2.5 uM, Pop E-F10 replicate 1", "result": 101.551},
      {"measurement": "Normalised to DMSO", "setting": "M-833 2.5 uM, Pop E-F10 replicate 3", "result": 105.276},
      {"measurement": "Normalised to DMSO", "setting": "M-833 5 uM, Pop E-F10 replicate 1", "result": 94.8519},
      {"measurement": "Normalised to DMSO", "setting": "M-833 5 uM, Pop E-F10 replicate 3", "result": 96.4122},
      {"measurement": "Normalised to DMSO", "setting": "M-833 10 uM, Pop E-F10 replicate 1", "result": 72.2144},
      {"measurement": "Normalised to DMSO", "setting": "M-833 10 uM, Pop E-F10 replicate 3", "result": 80.0563},
      {"measurement": "EC50", "setting": "Plasmodium falciparum, 72 h, Supplementary Table 1, PopE-F10 (N330K)", "result": "> 20", "unit": "µM"},
      {"measurement": "inhibition at 0.0390625 µM", "setting": "Plasmodium falciparum, M-833 0.0390625 uM, Pop E-F10 replicate 1, read-out: % Inhibition", "result": -9.1, "unit": "%"},
      {"measurement": "inhibition at 0.0390625 µM", "setting": "Plasmodium falciparum, M-833 0.0390625 uM, Pop E-F10 replicate 3, read-out: % Inhibition", "result": -3.8, "unit": "%"},
      {"measurement": "inhibition at 0.078125 µM", "setting": "Plasmodium falciparum, M-833 0.078125 uM, Pop E-F10 replicate 1, read-out: % Inhibition", "result": -8.04, "unit": "%"},
      {"measurement": "inhibition at 0.078125 µM", "setting": "Plasmodium falciparum, M-833 0.078125 uM, Pop E-F10 replicate 3, read-out: % Inhibition", "result": -4.85, "unit": "%"},
      {"measurement": "inhibition at 0.15625 µM", "setting": "Plasmodium falciparum, M-833 0.15625 uM, Pop E-F10 replicate 1, read-out: % Inhibition", "result": -16.5, "unit": "%"},
      {"measurement": "inhibition at 0.15625 µM", "setting": "Plasmodium falciparum, M-833 0.15625 uM, Pop E-F10 replicate 3, read-out: % Inhibition", "result": -8.13, "unit": "%"},
      {"measurement": "inhibition at 0.3125 µM", "setting": "Plasmodium falciparum, M-833 0.3125 uM, Pop E-F10 replicate 1, read-out: % Inhibition", "result": -13, "unit": "%"},
      {"measurement": "inhibition at 0.3125 µM", "setting": "Plasmodium falciparum, M-833 0.3125 uM, Pop E-F10 replicate 3, read-out: % Inhibition", "result": -13.3, "unit": "%"},
      {"measurement": "inhibition at 0.625 µM", "setting": "Plasmodium falciparum, M-833 0.625 uM, Pop E-F10 replicate 1, read-out: % Inhibition", "result": -17, "unit": "%"},
      {"measurement": "inhibition at 0.625 µM", "setting": "Plasmodium falciparum, M-833 0.625 uM, Pop E-F10 replicate 3, read-out: % Inhibition", "result": -4.75, "unit": "%"},
      {"measurement": "inhibition at 1.25 µM", "setting": "Plasmodium falciparum, M-833 1.25 uM, Pop E-F10 replicate 1, read-out: % Inhibition", "result": -5.92, "unit": "%"},
      {"measurement": "inhibition at 1.25 µM", "setting": "Plasmodium falciparum, M-833 1.25 uM, Pop E-F10 replicate 3, read-out: % Inhibition", "result": -4.33, "unit": "%"},
      {"measurement": "inhibition at 2.5 µM", "setting": "Plasmodium falciparum, M-833 2.5 uM, Pop E-F10 replicate 1, read-out: % Inhibition", "result": -1.55, "unit": "%"},
      {"measurement": "inhibition at 2.5 µM", "setting": "Plasmodium falciparum, M-833 2.5 uM, Pop E-F10 replicate 3, read-out: % Inhibition", "result": -5.28, "unit": "%"},
      {"measurement": "inhibition at 5 µM", "setting": "Plasmodium falciparum, M-833 5 uM, Pop E-F10 replicate 1, read-out: % Inhibition", "result": 5.15, "unit": "%"},
      {"measurement": "inhibition at 5 µM", "setting": "Plasmodium falciparum, M-833 5 uM, Pop E-F10 replicate 3, read-out: % Inhibition", "result": 3.59, "unit": "%"},
      {"measurement": "inhibition at 10 µM", "setting": "Plasmodium falciparum, M-833 10 uM, Pop E-F10 replicate 1, read-out: % Inhibition", "result": 27.8, "unit": "%"},
      {"measurement": "inhibition at 10 µM", "setting": "Plasmodium falciparum, M-833 10 uM, Pop E-F10 replicate 3, read-out: % Inhibition", "result": 19.9, "unit": "%"},
      {"measurement": "inhibition at 0.0390625 µM", "setting": "Plasmodium falciparum, Pop E-F10 replicate 1, M-833 0.0390625 uM", "result": -3, "unit": "%"},
      {"measurement": "inhibition at 0.078125 µM", "setting": "Plasmodium falciparum, Pop E-F10 replicate 1, M-833 0.078125 uM", "result": -0.769, "unit": "%"},
      {"measurement": "inhibition at 0.15625 µM", "setting": "Plasmodium falciparum, Pop E-F10 replicate 1, M-833 0.15625 uM", "result": -1.15, "unit": "%"},
      {"measurement": "inhibition at 0.3125 µM", "setting": "Plasmodium falciparum, Pop E-F10 replicate 1, M-833 0.3125 uM", "result": -1.42, "unit": "%"},
      {"measurement": "inhibition at 0.625 µM", "setting": "Plasmodium falciparum, Pop E-F10 replicate 1, M-833 0.625 uM", "result": -0.0475, "unit": "%"},
      {"measurement": "inhibition at 1.25 µM", "setting": "Plasmodium falciparum, Pop E-F10 replicate 1, M-833 1.25 uM", "result": 1.29, "unit": "%"},
      {"measurement": "inhibition at 2.5 µM", "setting": "Plasmodium falciparum, Pop E-F10 replicate 1, M-833 2.5 uM", "result": 3.54, "unit": "%"},
      {"measurement": "inhibition at 5 µM", "setting": "Plasmodium falciparum, Pop E-F10 replicate 1, M-833 5 uM", "result": 13.5, "unit": "%"}
    ]}
  ]
}
